The results in this text go back to US12065671B2, “Method for reproducible differentiation of clinical-grade retinal pigment epithelium cells” (The United States of America, as represented by the …, priority 2015, dated 2024).

Common to all, as to type: cell-based, human
Assay [1] has as its system RPE population. Put plainly: Inclusion of MEK inhibitor in RDM and RPE-MM during RPE differentiation. Particulars: 1 μM in RDM and in RPE-MM (approximately Days 42 through 50). The method, then: With regard to the methods described in Examples 2 and 3, the inclusion of PD0325901 at a concentration of 1 μM in media for certain windows of time beginning on Day 2 post iPSC plating through the end of the differentiation process, including post-MACS culture, may improve both purity of the RPE population (meaning a decrease in contaminating cells) as well as maturity of the resulting RPE population.

In assay [2] the test system is iPSC-RPE cells. Put plainly: Immunostaining of iPSC-RPE monolayer (beta catenin, pERM, ZO1, RPE65, p27). Particulars: for p27 staining: nucleus, higher expression suggests cell cycle exit; for Beta catenin staining: treated vs untreated iPSC-RPE cells (untreated: cytoplasm); for RPE65 staining: treated vs untreated iPSC-RPE cells (untreated: low); for RPE maturation: treatment of RPE cells in RPE-MM. The method, then: (§1) For analysis of the mature RPE cells produced from treatment with PGE2, immunostaining of the RPE monolayer was performed to confirm the hexagonal architecture (FIGS. 4A-4C) of tight junctions by ZO1 staining as well as transmission electron microscopy of the iPSC-RPE cells (FIG. 4D). […] In addition, treatment with IWP2+endo-IWR1 or IWP2 results also results in decreased beta catenin (FIG. 5A) and increased RPE65 (FIG. 5C).

For assay [3], the system named is iPSC-RPE cells. Put plainly: Transmission electron microscopy of iPSC-RPE cells. The settings on record: treated vs untreated iPSC-RPE cells. The method, then:
as §1

Assay [4] relates to iPSC-derived RPE cells. The experiment in a line: Flow cytometry purity assay for RPE-specific markers. The method, then: The flow cytometry purity assay was performed to determine the percentage of RPE cells obtained by a sorting method of the present disclosure. An aliquot of the cell suspension collected from the MACS assay (2×10^6 cells in a 5 mL FACS tube per sample) was centrifuged at 400×g for 3 min. The cell pellet was resuspended in 1 mL of a stain (e.g., Live-Dead Red stain) and incubated in the dark at room temperature for 15 min. After incubation, 2 mL of wash buffer was added and the cells were centrifuged at 400×g for 3 min to remove any unbound stain. The cell pellet was resuspended in fixation buffer and incubated in the dark at room temperature for 15 min. After incubation, 2 mL of wash buffer were added and the cells were centrifuged at 400×g for 3 min and the supernatant was decanted. The cell pellet was resuspended in 2 mL of wash buffer to make a 1×10^6 cells/mL suspension and 200 μL of the cell suspension was transferred to a FACS tube. To each tube, 2 mL of perm buffer was added and cells were centrifuged at 400×g for 3 min. Primary antibodies for the RPE-specific markers were diluted in perm buffer and 100 μL diluted antibody solution was added to each tube. After incubation overnight at 4° C. in the dark, the cells were washed in 2 mL Perm Buffer two times. Secondary antibody solution was added to each of the tubes and cells were incubated at room temperature in the dark for 1-2 hours. After incubation, the cells were washed twice with Perm Buffer, centrifuged (400×g for 3 min) and resuspended in 100 μL wash buffer for flow cytometry analysis. […]
Functionality of the mature RPE cells treated with IWP2 or endo-IWR1 was also characterized. […] To determine the maturity and functionality of the 50 μM versus 100 μM PGE2 treated cultures, the barrier function in terms of transepithelial electrical resistance (TER) was measured (FIG. 7F) to compare the resistance of substances through the paracellular space as explained in Example 9. […]
For orientation: A flow cytometer gives signals particle by particle.

In assay [5] the test system is iPSC-derived RPE cells. The experiment in a line: Barrier function: transepithelial electrical potential (TEP) and resistance (TER) of RPE monolayer. The method, then:
To measure the barrier function of the RPE cells generated by the present methods, transepithelial electrical potential (TEP) was measured the ion gradient across the monolayer generated by energy-driven ion pumps that regulate passage across the cells, and transepithelial electrical resistance (TER) measures resistance of substances through the paracellular space mainly through the fine structure of the tight junction structure (FIG. 7A).
Functionality of the mature RPE cells treated with IWP2 or endo-IWR1 was also characterized. […] To determine the maturity and functionality of the 50 μM versus 100 μM PGE2 treated cultures, the barrier function in terms of transepithelial electrical resistance (TER) was measured (FIG. 7F) to compare the resistance of substances through the paracellular space as explained in Example 9. To determine the percentage of pure RPE cells obtained after treatment of the iPSC-derived RPE cultures with 50 μM or 100 μM in the RPE-MM+PGE2 medium, flow cytometry purity assay was performed for RPE-specific markers (FIG. 7G) as described in Example 6.

Setting [6] is: day 75, 100 μM vs 50 μM PGE2, day 54 to day 75.

“Also recorded” adds a separate entry of the source.

On to `O=C(NOC[C@H](O)CO)c1ccc(F)c(F)c1Nc1ccc(I)cc1F` [PD 0325901, N-[(2R)-2,3-Dihydroxypropoxy]-3,4-difluoro-2-[(2-fluoro-4-iodophenyl)amino]-benzamide], for which, in assay [1], the “Purity and maturity of the RPE population” value is “improve both purity and maturity”.

On to `Cc1ccc2nc(NC(=O)CSc3nc4c(c(=O)n3-c3ccccc3)SCC4)sc2c1` [IWP2, N-(6-Methyl-2-benzothiazolyl)-2-[(3,4,6,7-tetrahydro-4-oxo-3-phenylthieno[3,2-d]pyrimidin-2-yl)thio]-acetamide], for which, in assay [2], the p27 staining result is “higher p27 expression in the nucleus”, the Beta catenin staining entry is “decreased; also recorded: on cell membrane”, the RPE65 staining result was “increased; also recorded: high in the cytoplasm” and the RPE maturation entry is on record as “produces mature RPE cells”.

Turning to `CCCCC[C@H](O)/C=C/[C@H]1[C@H](O)CC(=O)[C@@H]1C/C=C\CCCC(=O)O` [PGE2, prostaglandin E2], the ZO1 staining entry in assay [2] (both untreated and treated cells) was “at the tight junctions in the plasma membrane”. Besides, in assay [2], the Beta catenin staining entry was “decreased; also recorded: at the membrane”, the RPE65 staining result was “increased; also recorded: high in the cytoplasm” and the RPE maturation result is listed as “produces mature RPE cells”. Further, in assay [2] (treated vs untreated iPSC-RPE cells (untreated: low in cytoplasm)), the “pERM (Ezrin) staining” value is given as “high in the cytoplasm”. The “Apical processes in transmission electron micrographs” value in assay [3] is given as “more extensive apical processes”. In addition, in assay [4] (setting [6]), the “Expression of Best 1 marker (late maturity RPE marker)” value was “much higher”; the “Expression of Pmel17, Tryp1 and Cralbp (RPE-specific markers)” value is reported as “comparable expression”. The “Purity and maturity of the RPE population” value in assay [4] (higher concentration (100 μM vs 50 μM) in RPE-MM+PGE2 medium, TER and flow cytometry) was “promotes both the purity and maturity”. For the same compound, in assay [5] (100 μM vs 50 μM PGE2 in RPE-MM+PGE2 medium, Day 54 to Day 75), the “Functional response (TER)” value was “progressive increase”. Also, the “TEP and TER measurements (functionality)” value in assay [5] (treated vs untreated RPE cells) is on record as “increased functionality”.

Consider `[Cl-].[Li+]` [LiCl], for which, in assay [2], the p27 staining result is “weak p27 expression in the nucleus”, the Beta catenin staining result is recorded as “in the nucleus” and the RPE65 staining result is “no staining”.
